From US9029399B2, “17α-hydroxylase/C17,20-lyase inhibitors” (Novartis AG, priority 2011, dated 2015) come the findings set out here.

Human CYP17 enzyme (Cytochrome P450, 17-20 lyase), sequence (P05093 whole entry): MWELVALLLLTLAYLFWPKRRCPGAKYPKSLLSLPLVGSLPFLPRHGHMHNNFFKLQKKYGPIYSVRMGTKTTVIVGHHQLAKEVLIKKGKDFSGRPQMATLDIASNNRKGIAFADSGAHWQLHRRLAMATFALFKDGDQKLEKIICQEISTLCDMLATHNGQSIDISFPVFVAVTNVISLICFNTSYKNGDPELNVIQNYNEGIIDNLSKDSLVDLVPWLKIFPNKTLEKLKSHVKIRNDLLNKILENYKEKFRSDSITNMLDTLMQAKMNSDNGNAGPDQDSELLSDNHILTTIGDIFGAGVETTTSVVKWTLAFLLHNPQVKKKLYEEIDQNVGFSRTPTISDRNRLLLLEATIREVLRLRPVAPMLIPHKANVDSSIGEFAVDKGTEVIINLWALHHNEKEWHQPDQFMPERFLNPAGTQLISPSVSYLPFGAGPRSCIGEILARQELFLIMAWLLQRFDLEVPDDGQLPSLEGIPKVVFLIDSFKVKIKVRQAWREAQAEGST
Rat CYP 17 Lyase, sequence (P11715 whole entry): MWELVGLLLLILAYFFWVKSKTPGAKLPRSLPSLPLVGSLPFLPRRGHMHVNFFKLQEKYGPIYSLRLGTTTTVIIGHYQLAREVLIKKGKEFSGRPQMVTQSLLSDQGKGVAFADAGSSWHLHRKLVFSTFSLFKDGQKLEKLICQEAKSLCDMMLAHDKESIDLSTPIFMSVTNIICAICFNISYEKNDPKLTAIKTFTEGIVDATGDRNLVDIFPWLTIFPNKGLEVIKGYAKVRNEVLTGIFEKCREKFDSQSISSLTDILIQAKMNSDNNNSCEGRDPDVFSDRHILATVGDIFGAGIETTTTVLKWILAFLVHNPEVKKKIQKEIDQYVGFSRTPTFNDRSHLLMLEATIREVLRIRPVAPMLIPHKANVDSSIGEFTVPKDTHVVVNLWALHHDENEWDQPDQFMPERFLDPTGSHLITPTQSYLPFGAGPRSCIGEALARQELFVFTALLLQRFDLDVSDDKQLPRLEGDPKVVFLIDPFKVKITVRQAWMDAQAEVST

One assay concerns the target Human CYP17 enzyme (Cytochrome P450, 17-20 lyase) (Homo sapiens (Human), UniProt P05093). Description: CYP17 lyase assay, recombinant human CYP17 enzyme, 17-α-hydroxy pregnenolone [21-3H] substrate. The following applies: recombinant human CYP17, first value of Human/Rat cell; read-out: Lyase IC 50 Human. The format is biochemical. An excerpt:
1) Cvtochrome P450, 17-20 Lyase (CYP17-Lyase) Assay Development Using Recombinant Human CYP17 Enzyme and 17-α-Hydroxy Pregnenolone [21-3H] as the Substrate
Cytochrome P450, 17-α-Hydroxylase, 17-20 lyase (CYP17) is a multi functional enzyme that plays a key role in the biosynthesis of steroid hormones. […] In the hydroxylation reaction, it converts progesterone and pregnenolone to the corresponding hydroxylated products 17-α-hydroxy progesterone and 17-α-hydroxy pregnenolone. In the lyase reaction, it catalyzes the conversion of these hydroxylated substrates to Androstenedione and Dehydroepiandrosterone (DHEA) respectively. In the Cyp17 lyase assay described here, the conversion of 17-α-hydroxy pregnenolone to Dehydroepiandrosterone and acetic acid is being monitored.
The conversion of 17-α-hydroxy pregnenolone to Dehydroepiandrosterone is accompanied by the release of acetic acid. In the Cyp17 lyase assay, 17-α-hydroxy pregnenolone labeled with tritium (3H) at position 21 is used as the substrate. Chloroform extraction removes the radioactive steroids and acetic acid is taken into aqueous layer. The tritiated acetic acid released in the assay thus extracted is quantified to determine the enzyme activity.
Human Cyp 17 gene was cloned and expressed in Adenoviral expression system in A549 cell lines. The purified cell membrane preparations were used as the source for Human CYP17 enzyme. Total protein concentration: 8 mg/mL.
For routine screening, the assay was set up with 16 μg of enzyme in 50 μL reaction volume. 17α-hydroxy pregnenolone [21-3H] was added to a final concentration of […] NADPH is used at a final concentration of 4.2 mM. Total reaction volume was made up to 50 μL with 50 mM Phosphate buffer pH 7.5. The reaction mixture was incubated at room temperature for 90 minutes with gentle shaking. The reaction was stopped by the addition of 100 μl, of buffer. 500 μl, of 5% freshly prepared activated charcoal was added to the solution and mixed well by vortexing. The samples were centrifuged at 17568×g for 5 minutes. (14000 rpm). The supernatant was carefully transferred to fresh tube and 1.3 mL of scintillation fluid was added, mixed by vortexing.
The measurements were carried out in 2.0 mL Eppendorf™ tubes. Each tube was counted for 1 minute. The amount of tritiated acetic acid released is proportional to the lyase activity. Percent lyase activity in presence of inhibitor was calculated using the formula given below.
[formula] Sample: Enzyme reaction in presence of inhibitor. Positive control: Enzyme reaction without inhibitor but containing DMSO at 1% final concentration. Blank—Contains all reagents except enzyme. % Inhibition=100%−% Lyase activity
For IC50 determination, the % inhibition was plotted as a function of inhibitor concentration. The data was fitted to sigmoidal equation using Graphpad Prism® software IV to generate IC50 values.
On to `O=C1N(c2ccnc(C(F)(F)F)c2)CCN1c1cnccc1C1CC1` [Example 2A, 1-(4-cyclopropylpyridin-3-yl)-3-(2-(trifluoromethyl)pyridin-4-yl)imidazolidin-2-one], for which the IC50 amounted to 0.009 µM.

For the compound `O=C1N(c2cc(C3CC3)ncn2)CCN1c1cnccc1C1CC1` [Example 38A, 1-(4-cyclopropylpyridin-3-yl)-3-(6-cyclopropylpyrimidin-4-yl)imidazolidin-2-one], the IC50 is 0.048 µM.

Consider `O=C1N(c2ccnc(C3CC3)n2)CCN1c1cnccc1C1CC1` [Example 43A, 1-(4-cyclopropylpyridin-3-yl)-3-(2-cyclopropylpyrimidin-4-yl)imidazolidin-2-one], for which the IC50 was found to be 0.036 µM.

With `O=C1N(c2ccnc(C3CC3)c2)CCN1c1cnccc1C1CC1` [Example 39A, 1-(4-cyclopropylpyridin-3-yl)-3-(2-cyclopropylpyridin-4-yl)imidazolidin-2-one], the IC50 stood at 0.012 µM.

As to `O=C1N(c2cccc(C(F)(F)F)c2)CCN1c1cnccc1C1(O)CC1` [Example 36A, 1-[4-(1-hydroxy-cyclopropyl)-pyridin-3-yl]-3-(3-trifluoromethyl-phenyl)-imidazolidin-2-one], the IC50 was 0.027 µM.

In the case of `COc1cc(N2C(=O)N(c3cnccc3C3CC3)[C@@H]3C[C@@H]32)ccn1` [Example 31A-II, (1R,5S)-2-(4-cyclopropylpyridin-3-yl)-4-(2-methoxypyridin-4-yl)-2,4-diazabicyclo[3.1.0]hexan-3-one], the IC50 was determined as 0.012 µM.

For `O=C1N(c2ccc3cc(F)sc3c2)CCN1c1cnccc1C1CC1` [Example 25A, 1-(4-cyclopropyl-pyridin-3-yl)-3-(2-fluoro-benzo(b)thiophene-6-yl)imidazolidin-2-one], the IC50 was determined as 0.03 µM.

Consider `O=C1N(c2cc3ccsc3cc2F)CCN1c1cnccc1C1CC1` [Example 28A, 1-(4-cyclopropylpyridin-3-yl)-3-(6-fluorobenzo[b]thiophen-5-yl)imidazolidin-2-one], for which the IC50 was 0.548 µM.

On to `Cc1nccc(N2CCN(c3cnccc3C3CC3)C2=O)n1` [Example 44A, 1-(4-cyclopropylpyridin-3-yl)-3-(2-methylpyrimidin-4-yl)imidazolidin-2-one], for which the IC50 was 0.397 µM.

Consider `O=C1N(c2ccc3ccccc3c2)CCN1c1cnccc1C1CC1` [Example 3A, 1-(4-cyclopropylpyridin-3-yl)-3-(naphthalen-2-yl)imidazolidin-2-one], for which the IC50 was found to be 0.026 µM.

On to `O=C1N(c2ccnc(Cl)c2)CCN1c1cnccc1C1CCCC1` [Example 34A, 1-(2-chloropyridin-4-yl)-3-(4-cyclopentyl-pyridin-3-yl)-imidazolidin-2-one], for which the IC50 is 0.013 µM.

Consider `O=C1N(c2ccc3sc(F)cc3c2)CCN1c1cnccc1C1CC1` [Example 14A, 1-(4-cyclopropylpyridin-3-yl)-3-(2-fluorobenzo[b]thiophen-5-yl)imidazolidin-2-one], for which the IC50 is 0.026 µM.

On to `O=C1N(c2ccc3sccc3c2)CCN1c1cnccc1C1CC1` [Example 4A, 1-(benzo[b]thiophen-5-yl)-3-(4-cyclopropylpyridin-3-yl)imidazolidin-2-one], for which the IC50 is 0.013 µM.

For `Cc1nc(Cl)cc(N2CCN(c3cnccc3C3CC3)C2=O)n1` [Example 7A, 1-(6-chloro-2-methylpyrimidin-4-yl)-3-(4-cyclopropylpyridin-3-yl)imidazolidin-2-one], the IC50 was 0.041 µM.

With `O=C1N(c2cnccc2C2CC2)[C@@H]2C[C@@H]2N1c1ccnc(Cl)c1` [Example 30A-II, (1S,5R)-2-(2-chloropyridin-4-yl)-4-(4-cyclopropylpyridin-3-yl)-2,4-diazabicyclo[3.1.0]hexan-3-one], the IC50 was 0.006 µM.

Regarding `O=C1N(c2cc(C(F)(F)F)nc(C(F)(F)F)c2)CCN1c1cnccc1C1CC1` [Example 49A, 1-(2,6-bis(trifluoromethyl)pyridin-4-yl)-3-(4-cyclopropylpyridin-3-yl)imidazolidin-2-one], the IC50 is 0.006 µM.

For the compound `O=C1N(c2cc(C(F)(F)F)ccn2)CCN1c1cnccc1C1CC1` [Example 8A, 1-(4-cyclopropylpyridin-3-yl)-3-(4-(trifluoromethyl)pyridin-2-yl)imidazolidin-2-one], the IC50 was 0.022 µM.

Regarding `O=C1N(c2cc(Cl)ncn2)CCN1c1cnccc1C1CC1` [Example 10A, 1-(6-chloropyrimidin-4-yl)-3-(4-cyclopropylpyridin-3-yl)imidazolidin-2-one], the IC50 turned out to be 0.121 µM.

For `O=C1N(c2ccnc(Cl)c2)CCN1c1cnccc1C1(O)CCCC1` [Example 35A, 1-(2-chloropyridin-4-yl)-3-[4-(1-hydroxycyclopentyl)-pyridin-3-yl]-imidazolidin-2-one], the IC50 came out at 0.341 µM.

For `O=C1N(c2ccc3c(c2)CCC3)CCN1c1cnccc1C1CC1` [Example 21A, 1-(4-cyclopropylpyridin-3-yl)-3-(2,3-dihydro-1H-inden-5-yl)imidazolidin-2-one], the IC50 was 0.017 µM.

`O=C1N(c2ccc3c(C(F)(F)F)csc3c2)CCN1c1cnccc1C1CC1` [Example 23A, 1-(4-cyclopropylpyridin-3-yl)-3-(3-(trifluoromethyl)benzo[b]thiophen-6-yl)imidazolidin-2-one]: the IC50 amounted to 1.21 µM.

For `Cc1c(F)sc2ccc(N3CCN(c4cnccc4C4CC4)C3=O)cc12` [Example 24A, 1-(4-Cyclopropyl-pyridin-3-yl)-3-(2-fluoro-3-methylbenzo[b]thiophen-5-yl)-imidazolidin-2-one], the IC50 came to 0.019 µM.

Regarding `O=C1N(c2ccnc(Cl)c2)[C@@H]2C[C@@H]2N1c1cnccc1C1CC1` [Example 30A-I, (1R,5S)-2-(2-chloropyridin-4-yl)-4-(4-cyclopropylpyridin-3-yl)-2,4-diazabicyclo[3.1.0]hexan-3-one], the IC50 stood at 0.161 µM.

With `O=C1N(c2ccc3c(c2)OC(F)(F)O3)CCN1c1cnccc1C1CC1` [Example 17A, 1-(4-cyclopropylpyridin-3-yl)-3-(2,2-difluorobenzo[d][1,3]dioxol-5-yl)imidazolidin-2-one], the IC50 was found to be 0.058 µM.

Regarding `Cc1csc2cc(N3CCN(c4cnccc4C4CC4)C3=O)ccc12` [Example 18A, 1-(4-cyclopropylpyridin-3-yl)-3-(3-methylbenzo[b]thiophen-6-yl)imidazolidin-2-one], the IC50 amounted to 0.076 µM.

Regarding `O=C1N(c2cc3cc(F)ccc3s2)CCN1c1cnccc1C1CC1` [Example 22A, 1-(4-cyclopropylpyridin-3-yl)-3-(5-fluorobenzo[b]thiophen-2-yl)imidazolidin-2-one], the IC50 was 0.007 µM.

For the compound `COc1cc(N2C(=O)N(c3cnccc3C3CC3)[C@H]3C[C@H]32)ccn1` [Example 31A-1, (1S,5R)-2-(4-cyclopropylpyridin-3-yl)-4-(2-methoxypyridin-4-yl)-2,4-diazabicyclo[3.1.0]hexan-3-one], the IC50 worked out at 0.169 µM.

As for `Cc1cc(N2CCN(c3cnccc3C3CC3)C2=O)ncc1F` [Example 42A, 1-(4-cyclopropylpyridin-3-yl)-3-(5-fluoro-4-methylpyridin-2-yl)imidazolidin-2-one], the IC50 was determined as 0.022 µM.

As to `O=C1N(c2cc(Cl)nc(Cl)c2)CCN1c1cnccc1C1CC1` [Example 46A, 1-(4-cyclopropylpyridin-3-yl)-3-(2,6-dichloropyridin-4-yl)imidazolidin-2-one], the IC50 turned out to be 0.0019 µM.

`O=C1N(c2ccc3sc(Cl)cc3c2)CCN1c1cnccc1C1CC1` [Example 20A, 1-(2-chlorobenzo[b]thiophen-5-yl)-3-(4-cyclopropylpyridin-3-yl)imidazolidin-2-one]: the IC50 turned out to be 0.106 µM.

As to `O=C1N(c2cc(Cl)nc(C(F)(F)F)n2)CCN1c1cnccc1C1CC1` [Example 45A, 1-(6-chloro-2-(trifluoromethyl)pyrimidin-4-yl)-3-(4-cyclopropylpyridin-3-yl) imidazolidin-2-one], the IC50 is 0.01 µM.

In the case of `O=C1N(c2ccc3ccsc3c2)CCN1c1cnccc1C1CC1` [Example 16A, 1-(benzo[b]thiophen-6-yl)-3-(4-cyclopropylpyridin-3-yl)imidazolidin-2-one], the IC50 amounted to 0.007 µM.

For the next assay, the target named is Rat CYP 17 Lyase (Rattus norvegicus (Rat), UniProt P11715). As to the kind of experiment: Rat CYP17 lyase model, rat testes microsomes. The following applies: substrate 0.5 μM, second value of Human/Rat cell, read-out: Lyase IC 50 Rat. The format is biochemical. The protocol:
For the Rat CYP 17 Lyase Model:
The same procedure described above was used but using rat testes microsomes as the source and with a substrate concentration of 0.5 μM.
In the case of `O=C1N(c2ccnc(C(F)(F)F)c2)CCN1c1cnccc1C1CC1` [Example 2A, 1-(4-cyclopropylpyridin-3-yl)-3-(2-(trifluoromethyl)pyridin-4-yl)imidazolidin-2-one], the IC50 came to 0.0011 µM.
